In US20130209386A1, “NEW USES” (EVOCUTIS PLC, priority 2010, published 2013):
“And” between values parts separate entries of the source, which are not always exact repeats. Equal entries are not always repeated. Where two headings read alike, the source gives them in different places. Marks after values point to notes of the source that are not given here.

Tests used:
[1] = test system: Propionibacterium acnes NCTC 737; assay: Minimum inhibitory concentration (MIC) assay; type: cell-based
Protocol: (§1) The first test organism used was Propionibacterium acnes NCTC 737. This is a propionibacterial strain and is the type strain of the genus; it is fully susceptible to antibiotics. The propionibacteria are clinically significant due to their involvement in acne. They are also opportunistic pathogens in compromised hosts. Activity observed against these micro-organisms is expected to be a good predictor of activity against acne.
(§2) The propionibacteria were cultured and maintained on Wilkins-Chalgren Anaerobe Medium (agar and broth) at pH 6.0; all cultures were incubated anaerobically at 37° C. for 72 hours.
(a) Minimum Inhibitory Concentration (MIC) Assay
This is a standard international method for quantitatively assessing the antimicrobial activity of a compound in a liquid medium. The method used a sterile 96-well microtitre plate, capable of holding about 200 μl of liquid per well. The wells contained liquid culture medium and ranges of decreasing concentrations of the relevant test compound in doubling dilutions (eg 1000, 500, 250, 125 . . . μg/ml, etc, down to 0.49 μg/ml). The culture media were as described above.
The wells were inoculated with a liquid suspension of freshly grown micro-organism and incubated under the conditions described above. After incubation, the microtitre plate was examined visually (with the aid of a light box) for cloudiness in each well, which would indicate microbial growth. The MIC value was recorded as the lowest concentration of test compound required to inhibit microbial growth, ie the lowest concentration for which the liquid in the well remained clear.
The assays included both negative (culture medium with no micro-organisms) and positive (culture medium plus diluting solvent plus micro-organism) controls.

[2] = test system: Propionibacterium acnes NCTC 737; assay: Minimum biocidal concentration (MBC) assay; type: cell-based
Protocol: as §1, §2
(b) Minimum Biocidal Concentration (MBC) Assay
This assay, normally carried out after an MIC assay, determines the minimum concentration of a compound that is lethal to the micro-organism being tested.
(§3) These samples were then individually sub-cultured on antibiotic-free agar medium, under the incubation conditions described above. Following incubation they were examined visually for microbial growth.

[3] = test system: Propionibacterium acnes NCTC 737; assay: Disc diffusion assay (DDA) and synergy disc diffusion assay (SDDA); type: cell-based
Protocol: (c) Disc Diffusion Assay (DDA)
This is an internationally recognised standard method for qualitatively assessing the antimicrobial activity of a compound or combination of compounds.
A sterile paper disc was impregnated with a sample of the test compound(s) in a suitable solvent (or applied neat) and 30 minutes allowed for any of the solvents to evaporate (where possible). The disc was then placed on an agar plate onto which the test micro-organism had been inoculated. The plate was then incubated under the conditions described above, following which it was examined visually for signs of microbial growth. […] The diameter of this zone of “inhibition” was measured using a ProtoCOL™ automated zone sizer (Synbiosis, Cambridge, UK).
(d) Synergy Disc Diffusion Assay (SDDA)
This is a variation on the DDA method, in which two compounds are tested together for their combined antimicrobial activity.
Two test compounds A and B were placed on a single paper disc and the above described DDA procedure repeated.
The two compounds were then subjected in combination to the SDDA assay described above.
MIC/MBC experiments were performed in duplicate and (S)DDA experiments in triplicate.
The tropolone was dissolved in ethanol.

C. striatum NCTC 764 = assay: Fixed ratio combination MIC/MBC assays; type: cell-based, Corynebacterium striatum
Protocol: The second test organism used was Corynebacterium striatum NCTC 764. This is a Gram-positive bacterium which is closely related to organisms (aerobic diphtheroids of the genus Corynebacterium) that cause body odour (Guillet et al, Eur J Dermatol, 2000 Jan-Feb, 10(1): 41-2). The C. striatum was cultured and maintained on Mueller-Hinton Medium (agar and broth) at pH 7.3 (±0.1); cultures were incubated aerobically at 37° C. for 18-24 hours.
(§4) (g) Fixed Ratio Combination MIC/MBC Assays
(§5) This method used a sterile 96-well microtitre plate, capable of holding about 200 μl of liquid per well. The wells contained liquid culture medium and ranges of decreasing concentrations of the relevant test compounds alone in doubling dilutions (eg 1000, 500, 250, 125 . . . μg/ml, etc. down to 0.49 μg/ml) or doubling dilutions of a combination of two compounds mixed initially at a fixed concentration ratio (based on molarity in this instance). The culture medium was as described above.
(§6) The wells were inoculated with a liquid suspension of freshly grown micro-organism and incubated under the conditions described above. After incubation, the microtitre plate was examined visually (with the aid of a light box) for cloudiness in each well, which would indicate microbial growth. The MIC value was recorded as the lowest concentration of test compounds alone or concentrations of the mixture of the two test compounds required to inhibit microbial growth, ie the liquid in the well remained clear.
(§7) The assays were conducted in triplicate and included both negative (culture medium with no micro-organisms) and positive (culture medium plus diluting solvent(s) plus micro-organism) controls.
as §3
(§8) Thus for each mixture tested, the FIC for compound A (FICA)=MIC for (A+B)/MIC for A alone. Similarly the FIC for compound B (FICB)=MIC for (A+B)/MIC for B alone. The overall FICI=FICA+FICB.
(§9) FBC & FBCI were calculated in the same manner using recorded MBC values.

P. acnes NCTC 737 = assay: Fixed ratio combination MIC/MBC assays; type: cell-based, Propionibacterium acnes
Protocol: as §4, §5, §6, §7, §3, §8, §9

[4] = P. acnes NCTC 737, compound alone
[5] = compound alone, 12.5 μg per disc (gluconate, picolinate 25 μg; silicate 12.4 μg; chlorophyllin 200 μg)
[6] = copper salt + tropolone versus the greater single zone
[7] = copper salt combined with tropolone on one disc, 12.5 μg each (exceptions b187)
[8] = C. striatum NCTC 764, compound alone

Compound	MIC [1, 4] [µg/mL]	MBC [2, 4] [µg/mL]	MIC/MBC ratio [2, 4]	DDA zone of inhibition diameter [3, 5] [mm]	SDDA area increase [3, 6] [%]	SDDA increase [3, 6] [mm]	(S)DDA with tropolone [3, 7] [mm]	MBC (C. striatum NCTC 764; [8])	MIC (C. striatum NCTC 764; [8])	further results
CC(=O)c1c([O-])c(C)c([O-])c2c1OC1=CC(=O)C(C(C)=O)C(=O)C12C.[Cu+2] (centres unmarked) [Copper (II) usnate]	0.25	1.95	0.125	38.35	22.13	4.03	42.38	6 µg/mL	3 µg/mL	
Sodium copper (II) chlorophyllin	15.6	31.25	0.5	0.00	220.07	10.44	23.67	>185** μg/ml	23.2 µg/mL	
Copper (II) carbonate basic	7.8	31.25	0.25	9.10	102.17	5.58	18.81	>28.3** μg/ml	>28.3** μg/ml	
Copper (II) silicate	4.84	38.75	0.125	33.80	3.08	0.52	34.32	>35.7** μg/ml	>35.7** μg/ml	
CSCC[C@H](NC(C)=O)C(=O)[O-].CSCC[C@H](NC(C)=O)C(=O)[O-].[Cu+2] [Copper (II) acetylmethionate]	7.8	125	0.06	10.23	306.27	13.44	26.67			
Copper (II) citrate dihydrate										MIC [1]: 1.95 µg/mL; MBC [2]: 31.25 µg/mL; MIC/MBC ratio [2]: 0.06; (S)DDA with tropolone [3]: 32.45 mm; DDA zone of inhibition diameter [3]: 32.04 mm; SDDA area increase [3]: 2.60%; SDDA increase [3]: 0.41 mm; MBC (C. striatum NCTC 764): >45** μg/ml; MIC (C. striatum NCTC 764): >45** μg/ml
O=C1CC[C@@H](C(=O)[O-])N1.O=C1CC[C@@H](C(=O)[O-])N1.[Cu+2] [Copper (II) PCA]	15.6	62.5	0.25	23.36	55.70	5.79	29.15	>81.9** μg/ml	>81.9** μg/ml	
O=C([O-])CC(O)(CC(=O)[O-])C(=O)[O-].[Bi+3] [Bismuth (III) citrate]										MBC (P. acnes NCTC 737; compound alone): 8.5 µg/mL; MIC (P. acnes NCTC 737; compound alone): 2.1 µg/mL; MBC (C. striatum NCTC 764): >67.9** μg/ml; MIC (C. striatum NCTC 764): >67.9** μg/ml
O.O=C(O)CC(O)(CC(=O)O)C(=O)O.[Ag].[Ag].[Ag] [Silver (I) citrate hydrate]								11.3 µg/mL	2.83 µg/mL	
Bismuth (III) subnitrate								>249.4** μg/ml	>249.4** μg/ml	MBC (P. acnes NCTC 737; compound alone): 15.6 µg/mL; MIC (P. acnes NCTC 737; compound alone): 3.9 µg/mL
O=C([O-])CN(CCN(CC(=O)[O-])CC(=O)[O-])CC(=O)[O-].[Cu+2].[Na+].[Na+] [EDTA copper (II) disodium salt]	7.8	>250	<0.03	10.03	328.62	14.16	27.39			
O=C(O)c1cc(O)c2c(c1)[O][Bi]([OH])[O]2 [Bismuth (III) subgallate]								>67.2** μg/ml	>67.2** μg/ml	MBC (P. acnes NCTC 737; compound alone): >67.2** μg/ml; MIC (P. acnes NCTC 737; compound alone): >67.2** μg/ml
CC(C)c1cccc(=O)c(O)c1 [Hinokitiol, 2-hydroxy-4-isopropyl-2,4,6-cycloheptatrien-1-one]										MBC (P. acnes NCTC 737; Cutibacterium acnes, NCTC737, compound alone, read-out: MBC): 62.5 µg/mL; MIC (P. acnes NCTC 737; Cutibacterium acnes, NCTC737, compound alone, read-out: MIC): 31.2 µg/mL
Copper (II) picolinate	62.5	62.5	1	35.25	−14.13	−2.58	32.66	>78.8** μg/ml	>78.8** μg/ml	
[Cl][Bi]([Cl])[Cl] [Bismuth (III) chloride]										MBC (P. acnes NCTC 737; compound alone): 27 µg/mL and 40 µg/mL
NCC(=O)[O-].NCC(=O)[O-].[Cu+2] [Copper (II) glycinate]										MBC (C. striatum NCTC 764): >54.2** μg/ml; MIC (C. striatum NCTC 764): >54.2** μg/ml
CC(=O)[O-].CC(=O)[O-].CC(=O)[O-].[Bi+3] [Bismuth (III) acetate]										MBC (P. acnes NCTC 737; compound alone): >46.4** μg/ml; MIC (P. acnes NCTC 737; compound alone): 11.6 µg/mL
